In ChEMBL document CHEMBL1201862, “PubChem BioAssay data set” (2004):
Active and inactive are the calls of the source.

What was measured:
[1] = biological target: Neurotensin receptor type 1 (Homo sapiens, UniProt P30989); format: functional;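 also: Image-based confirmatory dose-response assay measuring agonist activity at NTR1; NTR1-expressing U2OS osteosarcoma cells imaged for beta-arrestin GFP spot formation; agonist potency where compounds increase beta-arrestin recruitment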
cells = format: functional, cell-based; settings: PPC-1
MDA-MB-435 = experiment: cells; format: functional, cell-based; settings: Homo sapiens
HEK293 [2] = experiment: inhibitors of LMP1-driven NF-kB reporter, dose response, cell-based, HEK293, luciferase, cherry-pick (AID 588343); format: functional; settings: Homo sapiens
[3] = biological target: Luciferin 4-monooxygenase (Photinus pyralis, UniProt P08659); experiment: In vitro luciferase assay using purified luciferase. [Related pubchem assays: 1299, 1270, 1295, 1375, 1287, 1281, 1293, 1291, 1289, 1280, 465, 1364, 1282, 1372, 1365, 1370, 1367, 1366, 1266, 1373, 1292, 1290, 1302, 1371, 1283, 1271, 1294, 1374, 1368, 1369 ]
Luciferin 4-monooxygenase, sequence (P08659 whole entry): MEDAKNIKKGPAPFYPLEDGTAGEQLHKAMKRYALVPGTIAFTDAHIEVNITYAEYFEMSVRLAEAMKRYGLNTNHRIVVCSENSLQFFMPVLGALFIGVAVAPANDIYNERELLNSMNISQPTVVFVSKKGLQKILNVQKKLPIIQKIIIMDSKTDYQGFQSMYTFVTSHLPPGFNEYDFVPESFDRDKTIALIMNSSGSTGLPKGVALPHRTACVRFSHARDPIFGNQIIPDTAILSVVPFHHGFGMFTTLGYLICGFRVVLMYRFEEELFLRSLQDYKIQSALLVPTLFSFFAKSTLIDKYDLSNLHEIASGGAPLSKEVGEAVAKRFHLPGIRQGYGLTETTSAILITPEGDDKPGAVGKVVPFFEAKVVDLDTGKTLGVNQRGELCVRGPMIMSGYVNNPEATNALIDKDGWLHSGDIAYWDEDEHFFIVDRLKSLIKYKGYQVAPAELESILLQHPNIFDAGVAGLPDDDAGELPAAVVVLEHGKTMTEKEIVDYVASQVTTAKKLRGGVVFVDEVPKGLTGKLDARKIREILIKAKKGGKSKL

[4] = biological target: T1, Replicative DNA helicase DnaB (Mycobacterium tuberculosis, UniProt P9WMR3); experiment: DnaB intein splicing inhibitors, dose response, biochemical, cell-free fluorescence (AID 449749); format: functional
T1 sequence (P9WMR3 whole entry): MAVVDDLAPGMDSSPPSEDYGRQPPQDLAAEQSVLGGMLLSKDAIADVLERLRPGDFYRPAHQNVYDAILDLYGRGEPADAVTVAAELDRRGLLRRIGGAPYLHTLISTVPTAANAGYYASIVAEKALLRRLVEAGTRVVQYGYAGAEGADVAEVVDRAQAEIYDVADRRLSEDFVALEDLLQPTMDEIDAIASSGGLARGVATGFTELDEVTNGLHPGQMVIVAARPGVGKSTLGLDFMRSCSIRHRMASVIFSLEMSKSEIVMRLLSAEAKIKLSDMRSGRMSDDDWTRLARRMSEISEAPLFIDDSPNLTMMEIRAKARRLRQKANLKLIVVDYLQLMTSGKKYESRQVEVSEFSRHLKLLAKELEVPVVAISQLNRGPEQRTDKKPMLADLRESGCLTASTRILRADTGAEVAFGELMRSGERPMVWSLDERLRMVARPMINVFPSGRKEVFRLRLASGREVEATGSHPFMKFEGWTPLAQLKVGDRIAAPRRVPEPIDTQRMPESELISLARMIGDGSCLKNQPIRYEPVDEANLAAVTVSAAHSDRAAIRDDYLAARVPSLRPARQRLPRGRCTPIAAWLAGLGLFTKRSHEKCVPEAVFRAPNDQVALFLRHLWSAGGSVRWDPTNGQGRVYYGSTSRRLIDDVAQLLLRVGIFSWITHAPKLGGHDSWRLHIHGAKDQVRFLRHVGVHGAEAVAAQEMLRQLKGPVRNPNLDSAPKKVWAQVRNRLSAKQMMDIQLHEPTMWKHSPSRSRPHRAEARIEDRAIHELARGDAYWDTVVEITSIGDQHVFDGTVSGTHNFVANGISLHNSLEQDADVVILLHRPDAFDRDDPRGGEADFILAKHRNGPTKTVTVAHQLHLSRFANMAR

HEK293 [5] = experiment: PMA/Ionomycin induced NF-kB luciferase assay in 293- NF-kB-Luc stable cells. [Related pubchem assays: 1299, 1270, 1295, 1375, 1287, 1281, 1293, 1291, 1289, 1280, 465, 1364, 1282, 1372, 1365, 1370, 1367, 1366, 1269, 1373, 1292, 1290, 1302, 1371, 1283, 1271, 1294, 1374, 1368, 1369 ]; format: functional, cell-based; settings: Homo sapiens
HEK293 [6] = experiment: TNF Induced NF-kB Luciferase in 293-NF-kB-Luc Stable Cells. [Related pubchem assays: 1266, 1299, 1269, 1373, 1292, 1290, 1302, 1371, 1283, 1270, 1295, 1271, 1375, 1294, 1374, 1281, 1293, 1291, 1289, 1280, 465, 1368, 1364, 1282, 1372, 1365, 1369, 1370, 1367, 1366 ]; format: functional, cell-based; settings: Homo sapiens
HEK293 [7] = experiment: Cytotoxicity assay in HEK293 cells. [Related pubchem assays (depositor defined):AID1266, AID1269, AID1270, AID1271, AID1280, AID1281, AID1282, AID1283, AID1287, AID1289, AID1290, AID1291, AID1292, AID1293, AID1294, AID1295, AID1299, AID1302, AID1364, AID1365, AID1366, AID1367, AID1369, AID1370, AID1371, AID1372, AID1373, AID1374, AID1375, AID1384 …; format: functional, cell-based; settings: Homo sapiens
Protein RecA = biological target: T2, Protein RecA (Mycobacterium tuberculosis, UniProt P9WHJ3); experiment: Fluorescence Cell-Free Homogeneous Dose Retest to Identify Inhibitors of RecA-Intein Splicing Activity. [Related pubchem assays (depositor defined):AID2097, AID2223, AID489010, AID492950]; format: functional
T2 sequence (P9WHJ3 whole entry): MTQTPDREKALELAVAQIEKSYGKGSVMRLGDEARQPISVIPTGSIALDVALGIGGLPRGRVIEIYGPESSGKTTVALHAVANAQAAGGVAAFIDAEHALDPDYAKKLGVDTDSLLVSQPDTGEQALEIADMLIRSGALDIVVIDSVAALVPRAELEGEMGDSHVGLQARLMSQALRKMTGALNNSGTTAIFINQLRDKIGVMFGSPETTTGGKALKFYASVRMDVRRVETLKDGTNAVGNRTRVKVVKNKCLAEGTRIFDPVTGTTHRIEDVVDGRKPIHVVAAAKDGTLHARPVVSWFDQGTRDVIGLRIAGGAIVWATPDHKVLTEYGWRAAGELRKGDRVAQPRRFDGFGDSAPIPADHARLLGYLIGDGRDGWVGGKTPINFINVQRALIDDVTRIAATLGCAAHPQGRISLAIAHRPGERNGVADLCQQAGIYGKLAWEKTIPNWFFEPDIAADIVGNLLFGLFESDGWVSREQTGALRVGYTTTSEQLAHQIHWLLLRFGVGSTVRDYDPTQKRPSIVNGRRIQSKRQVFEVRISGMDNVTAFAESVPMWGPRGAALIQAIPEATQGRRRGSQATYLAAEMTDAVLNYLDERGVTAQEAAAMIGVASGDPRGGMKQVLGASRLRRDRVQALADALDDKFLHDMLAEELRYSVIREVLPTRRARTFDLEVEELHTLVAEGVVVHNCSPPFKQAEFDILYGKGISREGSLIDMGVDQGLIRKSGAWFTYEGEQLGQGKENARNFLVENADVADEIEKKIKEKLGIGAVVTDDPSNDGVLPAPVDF

Trypsin = Trypsin (Sus scrofa, UniProt P00761); experiment: porcine trypsin inhibitors, dose response, selectivity assay for Rce1 protease inhibitor project, biochemical, quenched peptide fluorescence, cherry-pick (AID 488789)
Trypsin, sequence (P00761 whole entry): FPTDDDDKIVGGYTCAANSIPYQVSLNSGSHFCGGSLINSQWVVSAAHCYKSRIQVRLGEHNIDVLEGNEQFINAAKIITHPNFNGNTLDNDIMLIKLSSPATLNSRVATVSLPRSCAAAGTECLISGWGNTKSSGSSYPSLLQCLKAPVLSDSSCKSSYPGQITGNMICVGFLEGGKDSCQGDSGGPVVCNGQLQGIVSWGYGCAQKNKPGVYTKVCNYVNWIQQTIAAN

[8] = growth suppression of beta-catenin-knockout colon cells, dose response, cell-based, HCT116, human colon tumor (AID 1045); format: functional;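 also: HCT116 colon tumor cells with beta catenin knocked out; cells exposed to compound for 60 hours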
SUMO-activating enzyme [9] = biological target: T3, SUMO-activating enzyme (Homo sapiens, UniProt Q9UBT2); experiment: SUMOylation inhibitor hit validation, confirmation, SUMOylation inhibitor project, biochemical, AlphaScreen (AID 2018); format: functional
T3 sequence (Q9UBE0 whole entry): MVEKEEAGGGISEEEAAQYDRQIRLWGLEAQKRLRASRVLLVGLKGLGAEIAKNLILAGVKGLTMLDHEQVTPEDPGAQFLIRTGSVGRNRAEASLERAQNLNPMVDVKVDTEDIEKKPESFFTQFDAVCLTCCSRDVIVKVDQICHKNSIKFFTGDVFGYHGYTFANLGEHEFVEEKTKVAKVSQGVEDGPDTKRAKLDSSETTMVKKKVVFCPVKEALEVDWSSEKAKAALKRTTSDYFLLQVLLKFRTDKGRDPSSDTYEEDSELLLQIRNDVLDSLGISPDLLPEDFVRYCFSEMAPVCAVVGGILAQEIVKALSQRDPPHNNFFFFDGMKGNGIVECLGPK
T3 sequence (Q9UBT2 whole entry): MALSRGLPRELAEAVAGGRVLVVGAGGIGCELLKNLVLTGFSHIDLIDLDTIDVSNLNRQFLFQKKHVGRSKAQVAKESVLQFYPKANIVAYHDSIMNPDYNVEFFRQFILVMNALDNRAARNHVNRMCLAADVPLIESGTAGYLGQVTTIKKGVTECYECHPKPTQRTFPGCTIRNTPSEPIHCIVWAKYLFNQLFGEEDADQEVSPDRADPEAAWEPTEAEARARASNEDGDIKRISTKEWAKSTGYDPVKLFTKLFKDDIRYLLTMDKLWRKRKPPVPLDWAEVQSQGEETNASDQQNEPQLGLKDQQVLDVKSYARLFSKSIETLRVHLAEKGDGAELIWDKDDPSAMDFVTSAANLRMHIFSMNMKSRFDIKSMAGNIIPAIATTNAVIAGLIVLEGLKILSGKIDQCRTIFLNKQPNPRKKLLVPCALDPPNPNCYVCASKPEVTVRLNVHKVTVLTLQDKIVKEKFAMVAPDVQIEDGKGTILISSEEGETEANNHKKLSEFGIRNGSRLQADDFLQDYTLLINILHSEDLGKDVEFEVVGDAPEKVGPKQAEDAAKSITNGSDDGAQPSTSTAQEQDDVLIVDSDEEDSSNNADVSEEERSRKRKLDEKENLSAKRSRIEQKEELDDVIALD

SUMO-activating enzyme [10] = biological target: T3, SUMO-activating enzyme; experiment: inhibitors of in vitro SUMOylation cascade, primary screen, biochemical, HTRF, uHTS (AID 2006); format: protein-complex assay
[11] = growth suppression of PTEN-null colon cells, dose response, cell-based, HCT116 PTEN knockout (AID 1047); format: functional;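 also: HCT116 colon tumor cells with PTEN knocked out; cells exposed to compound for 60 hours before readout; potency for loss of cell viability measured by luminescence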

Neurotensin receptor type 1, sequence (P30989 whole entry): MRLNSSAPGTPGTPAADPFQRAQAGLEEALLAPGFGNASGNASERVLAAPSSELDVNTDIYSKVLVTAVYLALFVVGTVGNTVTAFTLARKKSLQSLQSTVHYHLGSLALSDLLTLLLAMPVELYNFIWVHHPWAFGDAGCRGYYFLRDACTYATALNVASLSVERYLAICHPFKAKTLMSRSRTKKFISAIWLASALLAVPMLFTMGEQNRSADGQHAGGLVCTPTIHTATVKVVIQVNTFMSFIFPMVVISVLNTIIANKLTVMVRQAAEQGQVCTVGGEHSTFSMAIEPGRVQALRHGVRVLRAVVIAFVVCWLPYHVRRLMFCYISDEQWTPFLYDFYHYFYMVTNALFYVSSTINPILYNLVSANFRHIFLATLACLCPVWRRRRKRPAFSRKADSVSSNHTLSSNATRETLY

**Q.** For O=C(/C=C\c1ccccc1OC(=O)c1ccccc1F)c1cc2ccccc2o1, which EC50 [1] is on record?
**A.** 12 µM (active)

**Q.** What does the source list for CCSc1cc(N2CCCC2)nc(-c2ccc(Cl)cc2)n1?
**A.** IC50 (cells): > 10 µM (inactive); IC50 (MDA-MB-435): > 10 µM (inactive)

**Q.** What does the source list for Cc1n[nH]c2c1C(c1c(C)nn(-c3ccccc3)c1Cl)C(C#N)=C(N)O2 (stereo not given)?
**A.** AC50 (HEK293 [2]): 7.01 µM (active); EC50 [3]: > 8 µM (not active); AC50 [4]: 14 µM (active); EC50 (HEK293 [5]): 1 µM (active); EC50 (HEK293 [6]): 1.68 µM (active); EC50 (HEK293 [7]): > 8 µM (inactive); EC50 (Protein RecA): 13.5 µM (active)

**Q.** Which AC50 (Trypsin) does the source give for CSC[C@H](NC(=O)COc1cc2c(c3oc(=O)cc(C)c13)CCC(C)(C)O2)C(=O)O here?
**A.** 12 µM (active)

**Q.** Which results are given for O=C(/C=C/c1ccco1)NC(=S)Nc1cc(-c2nc3ccccc3s2)ccc1Cl?
**A.** EC50 [8]: 7.24 µM (active); IC50 (SUMO-activating enzyme [9]): 7.42 µM (active); IC50 (SUMO-activating enzyme [10]): 26 µM (active); EC50 [11]: 7.86 µM (active)
